Experimental findings from US20240383915A1, “OXAZEPINE COMPOUNDS AND USES THEREOF IN THE TREATMENT OF CANCER” (Genentech, Inc., priority 2021, published 2024) are described below.

One test addresses KRas (Homo sapiens (Human), UniProt P01116). Kind of test: KRas GDP HTRF (BODIPY-GDP exchange TR-FRET). The test is classed as biochemical. The gist of the method: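 Inhibition of SOS1-mediated exchange of BODIPY-GDP on KRAS G12D, started with 3 nM recombinant human SOS1 and 300 nM BODIPY-GDP and read after 60 min. TR-FRET excitation 337 nm, ratio 520/490 nm ×10,000. IC50 from 4-parameter Hill fit of normalized data.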
Background: In TR-FRET formats the signal depends on donor and acceptor labels being close together.

The next test relates to PC-9 cells. Kind of test: PC9 proliferation assay. Format: cell-based, human. Particulars: read-out: PC9 Prolif IC50 (G12V).
Another test concerns the target KRas(G12V) (Homo sapiens (Human), UniProt P01116, G12V). The experiment in a line: KRas(G12V) GDP HTRF (BODIPY-GDP exchange TR-FRET). The test is classed as biochemical.
In the next test the test system is SW480 cells. Kind of test: SW480 proliferation assay. Particulars: read-out: SW480 Prolif IC50 (G12V). Format: cell-based.

Like-named read-outs stand apart in the source and are kept apart here.

Chain of KRas(G12V) (P01116-2 other isoform, or with tags, fused parts or gaps G12V): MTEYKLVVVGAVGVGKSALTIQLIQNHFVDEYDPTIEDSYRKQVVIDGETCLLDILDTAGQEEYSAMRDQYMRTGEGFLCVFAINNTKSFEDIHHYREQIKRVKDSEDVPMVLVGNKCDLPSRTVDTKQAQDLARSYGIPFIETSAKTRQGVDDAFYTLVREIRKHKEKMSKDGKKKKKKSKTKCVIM
Chain of KRas (P01116-2 other isoform, or with tags, fused parts or gaps): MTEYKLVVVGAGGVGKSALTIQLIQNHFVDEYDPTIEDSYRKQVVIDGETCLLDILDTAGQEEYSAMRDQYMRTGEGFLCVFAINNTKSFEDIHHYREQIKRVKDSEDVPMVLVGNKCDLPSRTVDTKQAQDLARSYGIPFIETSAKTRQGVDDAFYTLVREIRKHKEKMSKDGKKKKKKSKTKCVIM

On to `Cc1cc(N)nc(-c2c(Cl)c3c4c(nc(OC[C@@H]5CCN5CC(F)F)nc4c2F)N([C@H](C)c2cccnc2N)CCO3)c1C(F)(F)F` (atropisomer, axis not shown) [Example 109, 6-((R)-4-((R)-1-(2-aminopyridin-3-yl)ethyl)-8-chloro-2-(((S)-1-(2,2-difluoroethyl)azetidin-2-yl)methoxy)-10-fluoro-5,6-dihydro-4H-[1,4]oxazepino[5,6,7-de]quinazolin-9-yl)-4-methyl-5-(trifluoromethyl)pyridin-2-amine], for which the IC50 (as a rule, the point on the concentration scale where inhibition reaches its midpoint) at KRas was 0.222 nM; in the test on PC-9 cells (Homo sapiens, PC-9, PC9), 13000 nM; against KRas(G12V) it was 0.18 nM; in the test on SW480 cells (Homo sapiens, SW480, SW480) it was 2.8 nM.
The corresponding values for `Cc1cc(N)nc(-c2c(Cl)c3c4c(nc(OCCC5CCCN5C)nc4c2F)N([C@H](C)c2cccnc2N)CCO3)c1C(F)(F)F` (stereo partly drawn) [Example 139, 6-((9R)-4-((R)-1-(2-aminopyridin-3-yl)ethyl)-8-chloro-10-fluoro-2-(2-(1-methylpyrrolidin-2-yl)ethoxy)-5,6-dihydro-4H-[1,4]oxazepino[5,6,7-de]quinazolin-9-yl)-4-methyl-5-(trifluoromethyl)pyridin-2-amine] are 0.205 nM, 830 nM, 0.08 nM and 240 nM.
As for `Cc1cc(N)nc(-c2c(Cl)c3c4c(nc(OC[C@]5(C)CC(F)(F)CN5C)nc4c2F)N([C@H](C)c2cccnc2N)CCO3)c1C(F)(F)F` (atropisomer, axis not shown) [Example 122a, 6-((R)-4-((R)-1-(2-aminopyridin-3-yl)ethyl)-8-chloro-2-(((S)-4,4-difluoro-1,2-dimethylpyrrolidin-2-yl)methoxy)-10-fluoro-5,6-dihydro-4H-[1,4]oxazepino[5,6,7-de]quinazolin-9-yl)-4-methyl-5-(trifluoromethyl)pyridin-2-amine], the half-maximal inhibitory concentration (IC50) is 4.49 nM against KRas; 2900 nM in the test on PC-9 cells (Homo sapiens, PC-9, PC9); 0.5 nM at KRas(G12V); 180 nM in the test on SW480 cells (Homo sapiens, SW480, SW480).
Turning to `Cc1cc(N)nc(-c2c(Cl)c3c4c(nc(OC[C@@]56CCCN5C[C@H](F)C6)nc4c2F)N([C@H](C)c2nccnc2N)CCO3)c1C(F)(F)F` (atropisomer, axis not shown; (aS)) [Example 101, 3-((R)-1-((R)-9-(6-amino-4-methyl-3-(trifluoromethyl)pyridin-2-yl)-8-chloro-10-fluoro-2-(((2R,7aS)-2-fluorotetrahydro-1H-pyrrolizin-7a(5H)-yl)methoxy)-5,6-dihydro-4H-[1,4]oxazepino[5,6,7-de]quinazolin-4-yl)ethyl)pyrazin-2-amine], the IC50 is 0.0616 nM on KRas; 830 nM in the test with PC-9 cells (Homo sapiens, PC-9, PC9); 0.06 nM against KRas(G12V); 5.7 nM with SW480 cells (Homo sapiens, SW480, SW480).
Take `Cc1cc(N)nc(-c2c(Cl)c3c4c(nc(OC[C@@H]5CC[C@H]6COCCN65)nc4c2F)N([C@H](C)c2cccnc2N)CCO3)c1C(F)(F)F` (atropisomer, axis not shown; (aS)) [Example 87a, 6-((R)-4-((R)-1-(2-aminopyridin-3-yl)ethyl)-8-chloro-10-fluoro-2-(((6S,8aS)-hexahydro-1H-pyrrolo[2,1-c][1,4]oxazin-6-yl)methoxy)-5,6-dihydro-4H-[1,4]oxazepino[5,6,7-de]quinazolin-9-yl)-4-methyl-5-(trifluoromethyl)pyridin-2-amine]: the half-maximal inhibitory concentration (IC50) against KRas was determined as 0.106 nM; in the test with PC-9 cells (Homo sapiens, PC-9, PC9), 6300 nM; against KRas(G12V) it was 0.087 nM; in the test on SW480 cells (Homo sapiens, SW480, SW480), 2.5 nM.
Taken in the same sequence, the figures for `Cc1cc(N)nc(-c2c(Cl)c3c4c(nc(OC[C@@H]5C[C@@H](F)CN5C)nc4c2F)N([C@@H]2CCCc4ccnc(N)c42)CCO3)c1C(F)(F)F` (atropisomer, axis not shown) [Example 132, (R)-8-((R)-9-(6-amino-4-methyl-3-(trifluoromethyl)pyridin-2-yl)-8-chloro-10-fluoro-2-(((2S,4R)-4-fluoro-1-methylpyrrolidin-2-yl)methoxy)-5,6-dihydro-4H-[1,4]oxazepino[5,6,7-de]quinazolin-4-yl)-5,6,7,8-tetrahydroisoquinolin-1-amine] were 0.273 nM, 3200 nM, 0.13 nM and 39 nM.
For the compound `C=C1CN2CCC[C@@]2(COc2nc3c4c(c(Cl)c(-c5nc(N)cc(C)c5C(F)(F)F)c(F)c4n2)OCCN3[C@H](C)c2cccnc2N)C1` (atropisomer, axis not shown) [Example 116, 6-((R)-4-((R)-1-(2-aminopyridin-3-yl)ethyl)-8-chloro-10-fluoro-2-(((S)-2-methylenetetrahydro-1H-pyrrolizin-7a(5H)-yl)methoxy)-5,6-dihydro-4H-[1,4]oxazepino[5,6,7-de]quinazolin-9-yl)-4-methyl-5-(trifluoromethyl)pyridin-2-amine], the IC50 on KRas came out at 0.0519 nM; in the test with PC-9 cells (Homo sapiens, PC-9, PC9), 1600 nM; against KRas(G12V) it was 0.074 nM; with SW480 cells (Homo sapiens, SW480, SW480), 4.6 nM.
The corresponding values for `Cc1cc(N)nc(-c2c(Cl)c3c4c(nc(OC[C@@H]5CC[C@H]6CN(S(C)(=O)=O)CCN56)nc4c2F)N([C@H](C)c2cccnc2N)CCO3)c1C(F)(F)F` (atropisomer, axis not shown; (aS)) [Example 125a, 6-((R)-4-((R)-1-(2-aminopyridin-3-yl)ethyl)-8-chloro-10-fluoro-2-(((6S,8aS)-2-(methylsulfonyl)octahydropyrrolo[1,2-a]pyrazin-6-yl)methoxy)-5,6-dihydro-4H-[1,4]oxazepino[5,6,7-de]quinazolin-9-yl)-4-methyl-5-(trifluoromethyl)pyridin-2-amine] are 0.218 nM, 3700 nM, 0.12 nM and 23 nM.
As for `Cc1c(F)c(N)nc(-c2c(Cl)c3c4c(nc(OC[C@@]56CCCN5C[C@H](F)C6)nc4c2F)N([C@H](C)c2cccnc2N)CCO3)c1C(F)(F)F` (atropisomer, axis not shown; (aS)) [Example 75a, 6-((R)-4-((R)-1-(2-aminopyridin-3-yl)ethyl)-8-chloro-10-fluoro-2-(((2R,7aS)-2-fluorotetrahydro-1H-pyrrolizin-7a(5H)-yl)methoxy)-5,6-dihydro-4H-[1,4]oxazepino[5,6,7-de]quinazolin-9-yl)-3-fluoro-4-methyl-5-(trifluoromethyl)pyridin-2-amine], the IC50 at KRas was 0.066 nM; in the test with PC-9 cells (Homo sapiens, PC-9, PC9), 890 nM; against KRas(G12V) it was 0.05 nM; in the test on SW480 cells (Homo sapiens, SW480, SW480), 1.1 nM.
In the case of `Cc1cc(N)nc(-c2cc3nc(OC[C@@]45CCCN4CC4(C5)OCCO4)nc4c3c(c2Cl)OCCN4Cc2cccnc2N)c1C(F)(F)F` [Example 35, (S)-6-(4-((2-aminopyridin-3-yl)methyl)-8-chloro-2-((dihydro-1H,3H-spiro[pyrrolizine-2,2′-[1,3]dioxolan]-7a(5H)-yl)methoxy)-5,6-dihydro-4H-[1,4]oxazepino[5,6,7-de]quinazolin-9-yl)-4-methyl-5-(trifluoromethyl)pyridin-2-amine], the IC50 against KRas was 0.63 nM; in the test with PC-9 cells (Homo sapiens, PC-9, PC9) it was 1700 nM; against KRas(G12V) it was 0.39 nM; with SW480 cells (Homo sapiens, SW480, SW480), 780 nM.
Turning to `Nc1ncccc1CN1CCOc2c(Cl)c(-c3cc(O)cc4ccccc34)cc3nc(OC[C@@]45CCCN4C[C@H](F)C5)nc1c23` [Example 61, 4-(4-((2-aminopyridin-3-yl)methyl)-8-chloro-2-(((2R,7aS)-2-fluorotetrahydro-1H-pyrrolizin-7a(5H)-yl)methoxy)-5,6-dihydro-4H-[1,4]oxazepino[5,6,7-de]quinazolin-9-yl)naphthalen-2-ol], the IC50 at KRas was found to be 4.3 nM; in the test with PC-9 cells (Homo sapiens, PC-9, PC9), 3100 nM; on KRas(G12V), 0.86 nM; in the test with SW480 cells (Homo sapiens, SW480, SW480), 940 nM.
Consider `Cc1cc(N)cc(-c2cc3nc(OC[C@@]45CCCN4C[C@H](F)C5)nc4c3c(c2Cl)OCCN4C)c1C(F)(F)F` [Example 39, 3-(8-chloro-2-(((2R,7aS)-2-fluorotetrahydro-1H-pyrrolizin-7a(5H)-yl)methoxy)-4-methyl-5,6-dihydro-4H-[1, 4]oxazepino[5,6,7-de]quinazolin-9-yl)-5-methyl-4-(trifluoromethyl)aniline], for which the IC50 against KRas was 140 nM; in the test with PC-9 cells (Homo sapiens, PC-9, PC9), 20000 nM; at KRas(G12V) it was 24 nM; in the test with SW480 cells (Homo sapiens, SW480, SW480), 20000 nM.
In the case of `Cc1cc(N)nc(-c2c(Cl)c3c4c(nc(OC[C@@]56CCCN5C[C@H](F)C6)nc4c2F)N(Cc2cccnc2N)CCO3)c1C(F)(F)F` (single isomer, unassigned) [Example 42b], the IC50 on KRas amounted to 82 nM; in the test on PC-9 cells (PC9) it was 7000 nM; at KRas(G12V) it was 55 nM; in the test on SW480 cells (SW480), 3400 nM.
With `Cc1cc(N)nc(-c2c(Cl)c3c4c(nc(OC[C@@]56CCN5CC(F)(F)C6)nc4c2F)N([C@H](C)c2ccnnc2N)CCO3)c1C(F)(F)F` (atropisomer, axis not shown) [Example 77a, 4-((R)-1-((R)-9-(6-amino-4-methyl-3-(trifluoromethyl)pyridin-2-yl)-8-chloro-2-(((S)-3,3-difluoro-1-azabicyclo[3.2.0]heptan-5-yl)methoxy)-10-fluoro-5,6-dihydro-4H-[1,4]oxazepino[5,6,7-de]quinazolin-4-yl)ethyl)pyridazin-3-amine], the IC50 against KRas was determined as 0.33 nM; with PC-9 cells (Homo sapiens, PC-9, PC9), 20000 nM; against KRas(G12V), 0.12 nM; with SW480 cells (Homo sapiens, SW480, SW480), 21 nM.
With `Cc1cc(N)nc(-c2cc3ncnc4c3c(c2Cl)OCCN4C(c2cccnc2N)C(F)(F)F)c1C(F)(F)F` (stereo not drawn) [Example 20, 6-(4-(1-(2-aminopyridin-3-yl)-2,2,2-trifluoroethyl)-8-chloro-5,6-dihydro-4H-[1,4]oxazepino[5,6,7-de]quinazolin-9-yl)-4-methyl-5-(trifluoromethyl)pyridin-2-amine], the IC50 stood at 510 nM at KRas; 8700 nM in the test on PC-9 cells (Homo sapiens, PC-9, PC9); 69 nM against KRas(G12V); 7300 nM in the test with SW480 cells (Homo sapiens, SW480, SW480).
